Experimental data reported in patent US8940766B2, “Methods for preventing and/or treating lysosomal storage disorders” (Amicus Therapeutics, Inc., priority 2009, dated 2015).
Changes are numbered by the printed parent chain.

Tests used:
[1] = target: T1, recombinant human GCase (rhGCase; Cerezyme®) (Homo sapiens, UniProt P04062, R534H); assay: In vitro enzyme inhibition assay of rhGCase with 4-MU-β-D-Glc fluorogenic substrate; assay type: biochemical; conditions: pH 5.2; average of three independent experiments
T1 construct: purchased Genzyme Corp
T1 sequence (P04062 40-536 R534H): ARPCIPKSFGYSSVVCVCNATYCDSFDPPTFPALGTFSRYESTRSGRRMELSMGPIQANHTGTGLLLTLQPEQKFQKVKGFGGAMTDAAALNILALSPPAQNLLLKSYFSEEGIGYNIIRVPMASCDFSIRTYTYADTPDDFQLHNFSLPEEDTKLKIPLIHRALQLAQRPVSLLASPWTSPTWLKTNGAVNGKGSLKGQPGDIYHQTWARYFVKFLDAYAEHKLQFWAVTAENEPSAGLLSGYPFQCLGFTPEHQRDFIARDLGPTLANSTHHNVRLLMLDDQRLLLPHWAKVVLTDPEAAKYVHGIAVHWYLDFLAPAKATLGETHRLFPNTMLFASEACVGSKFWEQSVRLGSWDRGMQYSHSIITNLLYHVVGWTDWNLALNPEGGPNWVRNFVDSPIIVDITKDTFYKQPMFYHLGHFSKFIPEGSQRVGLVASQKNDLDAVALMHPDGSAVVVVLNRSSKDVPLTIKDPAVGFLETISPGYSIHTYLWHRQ
Description: The binding affinity (defined here by Ki binding constant) of GCase for small molecule pharmacological chaperones described in this document were empirically determined using enzyme inhibition assays. In brief, the enzyme inhibition assays used monitored the ability of test compound to bind and prevent the hydrolysis of a fluorogenic substrate in a concentration-dependent manner. Specifically, the enzyme activity of recombinant human GCase (rhGCase; Cerezyme®, Genzyme Corp.) was measured using the 4-methylumbelliferyl-β-D-glucopyranoside (4-MU-β-D-Glc) fluorogenic substrate in the absence or in the presence of varying amounts of each test compound. […] The enzyme inhibition assays were performed at both pH 7.0 (endoplasmic reticulum pH) and at pH 5.2 (lysosomal pH) to gain insight into the binding affinity (i.e., potency) of compounds for GCase in the endoplasmic reticulum and lysososome.
Various concentrations of test compounds were prepared in buffer “M” consisting of 50 mM sodium phosphate buffer with 0.25% sodium taurocholate at pH 7.0 and pH 5.2. Enzyme (Cerezyme®, a recombinant form of the human enzyme β-glucocerebrosidase) was also diluted in the same buffer “M” at pH 7.0 and pH 5.2. […] Fluorescence was measured on a plate reader for 1 sec/well using 355 nm excitation and 460 nm emission.

lysosomal GCase = target: T2, lysosomal GCase (Homo sapiens, UniProt P04062); assay: In situ washout assay in fibroblasts (recovery of lysosomal GCase activity after compound removal); assay type: cell-based; conditions: fibroblasts treated at IC90 for 16-24 hours, then drug-free medium; single exponential fit
T2 construct: assayed in situ using fibroblasts established from a normal subject; endogenous in cells; host or cells: fibroblasts from a normal subject
T2 sequence (P04062 40-536): T1 sequence (P04062 40-536 R534H) with H495R
Description: Cells seeded in 48-well plates were incubated with the indicated concentrations of compound for 16-24 hours. For the dose-response assays, cells were incubated with the in situ substrate 5-(pentafluorobenzoylamino)fluorescein di-β-D-glucopyranoside (PFBFDβGlu) for 1 hour and subsequently lysed to determine the extent of substrate hydrolysis in the presence of compound. […] Inhibition was determined as the ratio of activity in the presence of compound to that in the absence of compound. […] Cells were washed extensively and incubated in drug-free medium to allow net compound efflux from cells. Cells were then tested for lysosomal GCase activity at 2 hour intervals over a total period of 8 hours following compound removal. The increase in activity over time was fitted with a single exponential function to determine the compound's washout time.

[2] = Blood brain barrier penetration after oral administration to mice; assay type: in vivo, mice (C57BL/6); conditions: single 30 mg/kg (free base equivalent) p.o. dose, FIG. 2
Description: For this purpose, 8-week old wild-type male mice (C57BL/6) were administered a single 30 mg/kg (free base equivalent) p.o. dose of reference or test compound by gavage (n=3 mice per time point). Dosing solutions were prepared in water. After dosing, mice were euthanized with CO2 at the following time points: 0-, 0.5-, 1-, and 4-hour post-dose. […] Similarly, brains were collected from each mouse. Plasma was derived by spinning whole blood at 2700 g for 10 minutes at 4° C. followed by storage on dry ice. Whole brains were washed in cold PBS to remove contaminating blood, blotted dry, flash frozen on dry ice, and ultimately stored at −80° C. until analysis. To prepare brain samples for analysis, 50-100 mg of tissue was homogenized in […]. Samples were then clarified by centrifugation. Next, 25 μl of the brain homogenate supernatant or 25 μl of plasma were combined with 25 μl of acetonitrile:water (95/5). […] Between 20 and 30 μl sample was injected for analysis. […] When Compound B was analyzed, Compound A was used as internal standard (150.1/130.1). For calculating drug concentrations, raw data for plasma (ng/mL) and brain (ng/g) was converted to nM using the molecular weight of respective compounds and assuming 1 g of tissue is equivalent to 1 mL volume. Concentration as a function of time was plotted in GraphPad Prism version 4.02.

## O[C@@H]1[C@@H](CCl)CNC[C@H]1O [Compound B, (3R,4R,5S)-5-(chloromethyl)piperidine-3,4-diol]
[1]
  IC50: 73 ± 9 nM
Lysosomal GCase
  In Situ Washout: 2.9 ± 0.22 h
[2]
  brain levels compared to Compound A: even higher levels of Compound B were detected in brain than that observed following administration of the hydrochloride salt form of Compound A
